Consider one compound from patent publication US7399869B2, “Fibroblast activation protein inhibitor compounds and methods” (Genentech, Inc., priority 2005, dated 2008).

The term Ki denotes a dissociation constant, usually derived from enzyme kinetics or from competition with a known ligand. A low value points to higher affinity.

SMILES strings stand for the structures.

Assay type in all cases: biochemical
The target of one assay is T1, DPP-8 (Homo sapiens, UniProt Q6V1X1).
T1 construct: 2-883 of DPP-8; FLAG (N); made in house; host or cells: 293 cells; template plasmid from Origene
Briefly: Inhibition of DPP-8 by Ac-Gly-boroPro 5. Here is the method:
(§1) To establish whether Ac-Gly-BoroPro 5 inhibits these prolyl peptidases, each protease was cloned, expressed and assayed to determine Km and Ki values and monitor their activity.
(§2) Briefly, proteases were added to a reaction mixture containing inhibitor and substrate (Ac-Ala-AMC for APH, Z-Gly-Pro-AMC for POP, and Ala-Pro-AFC for all others) in assay buffer at 23° C. Protease activity was followed continuously as described above to monitor time-dependent inhibition. Data were plotted as V0/Vi−1 versus [I], where V0 is the rate if substrate hydrolysis in the absence of inhibitor, Vi is the steady state rate of substrate hydrolysis in the presence of inhibitor and [I] is the concentration of Ac-Gly-BoroPro.
(§3) KI values for inhibition of proteases by 5 were determined using the method of progress curves. Briefly, proteases (10-100 nM) were added to a reaction mixture containing inhibitor 5 (0-10 μM) and substrate AP-AFC in assay buffer at 23° C. […] Ki, the true equilibrium inhibition constant was determined according to the following relationship: Ki=Kobs/(1+[S]/Km), where [S] is the concentration of substrate used in the assay and Km is the Michaelis constant for substrate cleavage. […]

The next assay addresses T2, DPP-9 (Homo sapiens, UniProt Q86TI2).
T2 construct: 2-864 of DPP-9; FLAG (N); made in house; host or cells: 293 cells; template plasmid from Origene
The assay is described as follows: Inhibition of DPP-9 by Ac-Gly-boroPro 5. Here is the method:
as §1, §2, §3

A further assay addresses T3, APH (Homo sapiens, UniProt P13798).
T3 construct: 2-732 of APH; FLAG (N); made in house; host or cells: 293 cells; template plasmid from Origene
T3 sequence (P13798 2-732): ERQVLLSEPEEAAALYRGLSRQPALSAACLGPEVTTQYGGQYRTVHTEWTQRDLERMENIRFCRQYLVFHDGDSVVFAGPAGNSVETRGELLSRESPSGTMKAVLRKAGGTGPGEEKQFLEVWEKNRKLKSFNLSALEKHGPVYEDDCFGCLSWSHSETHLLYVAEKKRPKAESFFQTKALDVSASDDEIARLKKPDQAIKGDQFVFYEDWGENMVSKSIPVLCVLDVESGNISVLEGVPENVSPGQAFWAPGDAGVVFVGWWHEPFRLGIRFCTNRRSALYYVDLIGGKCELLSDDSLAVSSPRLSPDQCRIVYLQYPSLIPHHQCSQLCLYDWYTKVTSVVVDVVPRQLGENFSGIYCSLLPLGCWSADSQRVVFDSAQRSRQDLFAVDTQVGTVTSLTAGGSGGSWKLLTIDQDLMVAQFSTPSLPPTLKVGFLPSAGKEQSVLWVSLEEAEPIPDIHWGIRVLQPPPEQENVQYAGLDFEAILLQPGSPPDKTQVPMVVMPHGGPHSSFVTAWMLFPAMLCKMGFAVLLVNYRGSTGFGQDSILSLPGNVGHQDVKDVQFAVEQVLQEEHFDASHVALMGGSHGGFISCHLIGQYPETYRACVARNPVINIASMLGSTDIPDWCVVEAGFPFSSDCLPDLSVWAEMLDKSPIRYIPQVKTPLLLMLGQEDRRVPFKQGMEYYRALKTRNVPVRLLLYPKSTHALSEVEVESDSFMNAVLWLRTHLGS
The assay is described as follows: Inhibition of APH by Ac-Gly-boroPro 5. The settings on record: substrate Ac-Ala-AMC, 23° C., progress curves. Here is the method: as §1, §2, §3

A further assay deals with T4, DPP-7 (Homo sapiens, UniProt Q9UHL4).
T4 construct: These constructs encoded amino acids 26-492 of DPP-7; FLAG (N); made in house; host or cells: 293 cells; template plasmid from Origene
Briefly: Inhibition of DPP-7 by Ac-Gly-boroPro 5. The settings on record: substrate Ala-Pro-AFC, 23° C., progress curves. Here is the method:
as §1, §2, §3

Assay [1] concerns the target T5, full-length (transmembrane) murine FAP (Mus musculus, UniProt P97321).
T5 sequence (P97321 1-761): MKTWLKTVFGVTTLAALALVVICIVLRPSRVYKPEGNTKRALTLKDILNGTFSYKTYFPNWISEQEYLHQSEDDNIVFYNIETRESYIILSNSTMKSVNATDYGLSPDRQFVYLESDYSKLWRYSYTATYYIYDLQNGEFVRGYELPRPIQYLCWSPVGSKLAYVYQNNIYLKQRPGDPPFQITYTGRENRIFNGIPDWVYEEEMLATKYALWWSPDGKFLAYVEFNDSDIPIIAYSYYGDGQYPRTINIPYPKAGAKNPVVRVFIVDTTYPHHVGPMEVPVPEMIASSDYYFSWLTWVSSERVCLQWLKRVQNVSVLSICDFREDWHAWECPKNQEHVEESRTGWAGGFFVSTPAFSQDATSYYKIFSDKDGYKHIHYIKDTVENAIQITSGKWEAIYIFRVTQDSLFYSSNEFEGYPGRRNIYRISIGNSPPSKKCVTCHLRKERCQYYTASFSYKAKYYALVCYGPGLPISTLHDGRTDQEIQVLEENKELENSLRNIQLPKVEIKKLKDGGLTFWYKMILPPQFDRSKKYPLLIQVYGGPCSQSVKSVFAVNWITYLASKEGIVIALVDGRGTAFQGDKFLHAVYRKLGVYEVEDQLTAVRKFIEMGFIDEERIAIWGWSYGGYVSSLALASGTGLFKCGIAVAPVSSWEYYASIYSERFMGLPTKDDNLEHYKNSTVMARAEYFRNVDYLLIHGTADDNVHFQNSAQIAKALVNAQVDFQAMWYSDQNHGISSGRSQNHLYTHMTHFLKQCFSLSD
The assay is described as follows: Inhibition of murine FAP in cell lysate.

The mark [2] stands for this setting: substrate Ala-Pro-AFC, 23° C., progress curves.

T1 sequence (Q6V1X1 18-898 limits assumed): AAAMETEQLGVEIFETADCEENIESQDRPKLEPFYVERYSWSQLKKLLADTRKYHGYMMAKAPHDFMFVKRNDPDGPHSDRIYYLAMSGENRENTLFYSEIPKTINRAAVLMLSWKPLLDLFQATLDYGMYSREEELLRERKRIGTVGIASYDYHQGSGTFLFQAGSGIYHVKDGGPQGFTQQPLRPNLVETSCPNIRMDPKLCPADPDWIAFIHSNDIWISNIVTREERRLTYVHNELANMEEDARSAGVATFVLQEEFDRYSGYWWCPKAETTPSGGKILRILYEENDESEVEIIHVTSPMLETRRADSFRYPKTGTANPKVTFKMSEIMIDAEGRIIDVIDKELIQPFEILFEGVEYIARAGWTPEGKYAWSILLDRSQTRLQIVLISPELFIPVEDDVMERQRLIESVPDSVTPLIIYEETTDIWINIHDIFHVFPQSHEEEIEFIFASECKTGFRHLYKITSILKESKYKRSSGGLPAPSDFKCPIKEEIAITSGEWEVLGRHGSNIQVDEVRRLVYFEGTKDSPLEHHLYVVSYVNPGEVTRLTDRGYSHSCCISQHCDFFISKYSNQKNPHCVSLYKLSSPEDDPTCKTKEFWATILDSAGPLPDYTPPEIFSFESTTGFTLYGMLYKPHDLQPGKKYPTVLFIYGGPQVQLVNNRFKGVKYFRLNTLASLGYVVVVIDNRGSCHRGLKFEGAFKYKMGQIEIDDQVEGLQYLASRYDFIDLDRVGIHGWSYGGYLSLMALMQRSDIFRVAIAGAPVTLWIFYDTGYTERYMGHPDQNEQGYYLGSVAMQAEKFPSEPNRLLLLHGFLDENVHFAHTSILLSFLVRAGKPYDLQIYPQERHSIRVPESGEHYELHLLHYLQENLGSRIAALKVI
T2 sequence (Q86TI2 2-863 limits assumed): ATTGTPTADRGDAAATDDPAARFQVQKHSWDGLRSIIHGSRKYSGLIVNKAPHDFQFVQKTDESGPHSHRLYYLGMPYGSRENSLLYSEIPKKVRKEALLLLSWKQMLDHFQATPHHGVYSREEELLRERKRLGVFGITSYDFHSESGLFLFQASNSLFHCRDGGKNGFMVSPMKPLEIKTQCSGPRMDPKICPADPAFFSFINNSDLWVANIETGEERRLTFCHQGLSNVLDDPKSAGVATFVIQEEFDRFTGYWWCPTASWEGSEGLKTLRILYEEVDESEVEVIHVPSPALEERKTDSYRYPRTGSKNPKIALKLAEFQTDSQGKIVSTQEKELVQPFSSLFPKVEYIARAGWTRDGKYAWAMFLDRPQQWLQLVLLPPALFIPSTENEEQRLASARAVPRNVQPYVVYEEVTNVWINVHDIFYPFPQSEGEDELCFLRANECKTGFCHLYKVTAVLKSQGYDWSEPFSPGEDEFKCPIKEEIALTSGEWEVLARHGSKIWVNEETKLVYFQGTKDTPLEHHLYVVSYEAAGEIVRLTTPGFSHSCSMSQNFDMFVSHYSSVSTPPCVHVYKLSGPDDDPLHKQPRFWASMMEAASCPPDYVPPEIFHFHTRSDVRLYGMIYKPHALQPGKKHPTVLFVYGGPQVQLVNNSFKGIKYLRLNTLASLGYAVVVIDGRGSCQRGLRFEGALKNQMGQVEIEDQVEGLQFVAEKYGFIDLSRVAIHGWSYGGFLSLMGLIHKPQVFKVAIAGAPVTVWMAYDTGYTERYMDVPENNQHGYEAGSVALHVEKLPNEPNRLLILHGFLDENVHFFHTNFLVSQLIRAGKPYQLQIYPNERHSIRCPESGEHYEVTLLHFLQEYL

With `CC(=O)NCC(=O)N1CCCC1B(O)O` (stereo not shown) [N-Ac-Gly-boroPro 5, N-acetyl-gly-boroproline], the “reactivity with DPP-8” value on DPP-8 was “poor reactivity”. Besides, the Ki at DPP-8 (setting [2]) is 19.1 µM; at DPP-9 (setting [2]), 8.8 µM; on APH it was 0.575 µM; at DPP-7, 125 µM. Further, on DPP-9, the “reactivity with DPP-9” value is given as “poor reactivity”. For the same compound, the “inhibits full-length (transmembrane) murine FAP at” value in assay [1] is recorded as 117 nM.
